Measurements as given in patent US11352396B2, “Antimicrobial peptides and methods of using same” (Zoetis Services LLC, priority 2017, dated 2022).
Residues, ends and D or L forms follow the SMILES beside them.

Key:
[1] = tested on: MSSP (Methicillin-Susceptible Staphylococcus pseudintermedius); experiment: MIC against selected strains of MSSP; assay type: cell-based; design: MIC MSSP 49051 / MIC MSSP 81923 / MIC MSSP 84250 / Effect on MSSP 86000 / Effect on MSSP 72036 / Effect on MSSP 78032: unit not given beside the values; Effect on MSSP 71990 / Effect on MSSP 86001 / Effect on MSSP 72191 / Effect on MSSP 76986 / Effect on MSSP 77378 / Effect on MSSP 81923 / Effect on MSSP 84250 / Effect on MSSP 84658: unit: µM; conditions: for SP 49051: S. pseudintermedius 49051, Table 6; for Effect on MSSP 71990: strain 71990, Table 5; for Effect on MSSP 72036: strain 72036, Table 5; for Effect on MSSP 72191: strain 72191, Table 5; for Effect on MSSP 76986: strain 76986, Table 5; for Effect on MSSP 77378: strain 77378, Table 5; for Effect on MSSP 78032: strain 78032, Table 5; for Effect on MSSP 81923: strain 81923, Table 5; for Effect on MSSP 84250: strain 84250, Table 5; for Effect on MSSP 84658: strain 84658, Table 5; for Effect on MSSP 86000: strain 86000, Table 5; for Effect on MSSP 86001: strain 86001, Table 5
Outline: (§1)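 MIC read by eye as the first well showing no growth after 18–20 h incubation. Cultures at 0.5 McFarland were diluted 1:250 in Mueller-Hinton broth and exposed to peptide over 50 μM–0.05 μM in the assay, per CLSI VET01-S2 microbroth method.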

E. coli ATCC 25922 = assay type: cell-based; conditions: E. coli 25922, Table 6
Outline: (§2)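 Broth microdilution followed CLSI VET01-S2, with peptides serially diluted to in-assay concentrations of 50 μM to 0.05 μM. A 0.5 McFarland inoculum diluted 1:250 in Mueller-Hinton Broth was incubated with peptide for 18-20 hours. MIC was read visually as the first well without visible growth.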

S. aureus ATCC 29213 = assay type: cell-based; design: key to SA 29213: MIC in μM (lowest conc. with no visible growth); conditions: S. aureus 29213, Table 6
Outline: as §2

[2] = tested on: MRSP (Methicillin-Resistant Staphylococcus pseudintermedius); experiment: MIC against selected strains of MRSP; assay type: cell-based; design: key to MIC MRSP 72192 / MIC MRSP 76923 / MR 71994 / Mr 88493 / MR 72035 / MR 72192 / MR 76923 / MR 79882 / MR 80279 / MR 81926 / MR 86002 / MR 87665: MIC in μM (visual, first well with no growth); conditions: for MR 71994: MRSP strain 71994, Table 6; for MR 72035: MRSP strain 72035, Table 6; for MR 72192: MRSP strain 72192, Table 6; for MR 76923: MRSP strain 76923, Table 6; for MR 79882: MRSP strain 79882, Table 6; for MR 80279: MRSP strain 80279, Table 6; for MR 81926: MRSP strain 81926, Table 6; for MR 86002: MRSP strain 86002, Table 6; for MR 87665: MRSP strain 87665, Table 6; for Mr 88493: MRSP strain 88493, Table 6
Outline: as §1

[3] = tested on: Canine-derived epithelial keratinocyte (CPEK) cells; assay type: cell-based
Outline: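 Viability was read by CellTiter-Glo luminescence after overnight exposure (37 °C, 5% CO2) of canine keratinocytes to a peptide range of 50–0.05 μM. Percent effect used phosphate buffer as the zero control and 0.1% Triton X-100 as the full-effect control.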

cRBC = assay type: cell-based, canine
Outline: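 Percent lysis, measured by absorbance at 405 nm, used 1% Triton X-100 as full effect and phosphate buffer as zero. Peptides spanned 50 µM–0.05 µM and were held with plasma-depleted washed erythrocytes at 37 °C for 1 h.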

bovine red blood cells = experiment: Red blood cell hemolysis assay, bovine; assay type: cell-based; conditions: compared with SEQ ID NO: 13 (tachyplesin)
Description: (§3) SEQ ID NO: 1 was selected for further research. Toxicity of SEQ ID NO: 1 to eukaryotic blood cells was compared to that of tachyplesin (SEQ ID NO: 13). A standard, well referenced red blood cell hemolysis assay was employed against multiple species to test the lysis potential of the peptides. Red blood cells (RBCs) were prepared and isolated by several centrifuge and wash steps to remove the plasma fraction. A dose titration (50 μM to 0.05 μM) of test peptides and control peptide melittin were spotted from 50 mM stocks in a 384 well plate. Prepared RBCs were incubated with peptide for one hour at 37° C. Percent hemolysis was measured by optical density at 405 nm and utilizing 1% TritonX100 as hundred percent effect (HPE) and phosphate buffer alone as zero percent effect (ZPE).

rat red blood cells = experiment: Red blood cell hemolysis assay, rat; assay type: cell-based; conditions: compared with SEQ ID NO: 13 (tachyplesin), FIG. 1
Description: as §3

human red blood cells = experiment: Red blood cell hemolysis assay, human; assay type: cell-based; conditions: compared with SEQ ID NO: 13 (tachyplesin), FIG. 1
Description: as §3

beagle red blood cells = experiment: Red blood cell hemolysis assay, beagle; assay type: cell-based; conditions: compared with SEQ ID NO: 13 (tachyplesin), FIG. 1
Description: as §3

mouse red blood cells = experiment: Red blood cell hemolysis assay, mouse; assay type: cell-based; conditions: compared with SEQ ID NO: 13 (tachyplesin)
Description: as §3

| Molecule | SP 49051 [1] | Effect on MSSP 71990 [1] | Effect on MSSP 72036 [1] | Effect on MSSP 72191 [1] | Effect on MSSP 76986 [1] | Effect on MSSP 77378 [1] | Effect on MSSP 78032 [1] | Effect on MSSP 81923 [1] | Effect on MSSP 84250 [1] | Effect on MSSP 84658 [1] | Effect on MSSP 86000 [1] | Effect on MSSP 86001 [1] | EC 25922 (E. coli ATCC 25922) | SA 29213 (S. aureus ATCC 29213) | MR 71994 [2] | MR 72035 [2] | MR 72192 [2] | MR 76923 [2] | MR 79882 [2] | MR 80279 [2] | other results |
| --- | --- | --- | --- | --- | --- | --- | --- | --- | --- | --- | --- | --- | --- | --- | --- | --- | --- | --- | --- | --- | --- |
| 116 (KWCFYVCYRGICYRRCND; Artificial Antimicrobial peptide) [compound 116] | 1.6 | 1.6 | 1.6 | 1.6 | 1.6 | 1.6 | 1.6 | 1.6 | 1.6 | 1.6 | 1.6 | 1.6 | 0.8 µM | 6.2 | 1.6 | 1.6 | 1.6 | 1.6 | 1.6 | 1.6 | MR 81926 [2]: 1.6; MR 86002 [2]: 3.1; MR 87665 [2]: 1.6; Mr 88493 [2]: 1.6; CPEK (50 μM) [3]: 16.0; cRBC (50 μM) (cRBC): 87.0 |
| 117 (GWCFYVCYRGICYRRCRD; Artificial Antimicrobial peptide) [compound 117] | 1.6 | 1.6 | 1.6 | 1.6 | 0.8 | 0.8 | 1.6 | 1.6 | 1.6 | 1.6 | 1.6 | 1.6 | 0.8 µM | 6.2 | 1.6 | 1.6 | 0.8 | 1.6 | 0.8 | 1.6 | MR 81926 [2]: 1.6; MR 86002 [2]: 0.8; MR 87665 [2]: 1.6; Mr 88493 [2]: 1.6; CPEK (50 μM) [3]: 14.7; cRBC (50 μM) (cRBC): 97.8 |
| CC[C@H](C)[C@H](NC(=O)CNC(=O)[C@H](CCCNC(=N)N)NC(=O)[C@H](Cc1ccc(O)cc1)NC(=O)[C@H](CS)NC(=O)[C@@H](NC(=O)[C@H](CCCNC(=N)N)NC(=O)[C@H](Cc1ccccc1)NC(=O)[C@H](CS)NC(=O)[C@H](Cc1c[nH]c2ccccc12)NC(=O)[C@@H](N)CCCCN)C(C)C)C(=O)N[C@@H](CS)C(=O)N[C@@H](Cc1ccc(O)cc1)C(=O)N[C@@H](CCCNC(=N)N)C(=O)N[C@@H](CCCNC(=N)N)C(=O)N[C@@H](CS)C(=O)N[C@@H](CCCNC(=N)N)C(=O)N[C@@H](CC(=O)O)C(=O)O [SEQ ID NO: 1, KWCFRVCYRGICYRRCRD] (H-KWCFRVCYRGICYRRCRD-OH; N-terminus and C-terminus assumed) |  |  |  |  |  |  |  |  |  |  |  |  |  |  |  |  |  |  |  |  | difference in toxicity versus SEQ ID NO: 13, bovine red blood cells (bovine red blood cells): negligible; times less toxic than SEQ ID NO: 13, rat red blood cells (rat red blood cells): 2-4 times; times less toxic than SEQ ID NO: 13, human red blood cells (human red blood cells): 2-4 times; times less toxic than SEQ ID NO: 13, beagle red blood cells (beagle red blood cells): 2-4 times; difference in toxicity versus SEQ ID NO: 13, mouse red blood cells (mouse red blood cells): negligible |
